One assay has as its target T1, human TRPA1 (Homo sapiens, UniProt O75762).
T1 construct: expressed in transfected cells; host or cells: HEK293 cells, transient lipofection of pcDNA3.1(+) human TRPA1-expression vector
The assay can be described thus: Test Example 1: TRPA1 activity-inhibition ratio, intracellular calcium (Fura 2-AM) in TRPA1-expressing HEK293 cells stimulated with menthol. It counts as cell-based. The conditions noted are these: mixed with agonist 1 mM menthol. The protocol:
A cDNA encoding human TRPA1 [a polynucleotide of position 63 to position 3888 of the nucleotide sequence shown in SEQ ID NO: 1 (GenBank Accession No.: NM_007332)] was inserted into a cloning site of a vector for mammalian cells [manufactured by Invitrogen under the trade name of pcDNA3.1(+)], to obtain a human TRPA1-expression vector. One microgram of the resulting human TRPA1-expression vector was mixed with 6 μL of a gene transfer reagent [manufactured by Invitrogen under the trade name of PLUS Reagent, Catalogue No.: 11514-015], to obtain a mixture I. Additionally, 4 μL of a cationic lipid for gene transfer [manufactured by Invitrogen under the trade name of Lipofectamine (registered trademark), Catalogue No.: 18324-012] was mixed with 200 μL of a medium for reducing serum consumption [Manufactured by Invitrogen under the trade name of Opti-MEM (registered trademark) I Reduced Serum Medium (catalogue No.: 11058021)], to obtain a mixture II.
Furthermore, 5×10^5 cells of HEK293 cells were cultured in a 10% by mass fetal bovine serum (FBS)-containing Dulbecco's modified Eagle's medium (DMEM) on a dish having a diameter of 35 mm maintained at 37° C. under 5% by volume carbon dioxide atmosphere to 70% confluence.
By adding the mixture I and the mixture II to the resulting cell culture, the human TRPA1-expression vector was introduced into HEK293 cells, to obtain TRPA1-expressing cells. […]
Thereafter, intensity of fluorescence A based on the Fura 2-AM introduced into the TRPA1-expressing cell and bound to a calcium ion in the cells at an excitation wavelength of 340 nm in the chamber and intensity of fluorescence B based on the Fura 2-AM introduced into the TRAP1-expressing cell at an excitation wavelength of 380 nm were measured.
Using the measured intensity of fluorescence A and B, Δfluorescence intensity ratioagonist was calculated. The Δfluorescence intensity ratioagonist was calculated on the basis of the formula (IV): [Formula 1] ΔFluorescence intensity ratioagonist=(Fluorescence intensity340 nm in the presence of an agonist/Fluorescence intensity 380 nm in the presence of an agonist)−(Fluorescence intensity340 nm in the presence of a control/Fluorescence intensity380 nm in the presence of a control) (IV).
In the formula (IV), the intensity of fluorescence A was used as fluorescence intensity340 nm, and the intensity of fluorescence B was used as fluorescence intensity380 nm. […]
In general terms: Calcium assays in cells follow changes in intracellular calcium, usually with a dye or a luminescent sensor.

The target in another assay is T2, human TRPM8 (Homo sapiens, UniProt Q7Z2W7).
T2 construct: expressed in transfected cells; host or cells: HEK293 cells, transient lipofection of pcDNA3.1(+) human TRPM8-expression vector
T2 sequence (Q7Z2W7 whole entry): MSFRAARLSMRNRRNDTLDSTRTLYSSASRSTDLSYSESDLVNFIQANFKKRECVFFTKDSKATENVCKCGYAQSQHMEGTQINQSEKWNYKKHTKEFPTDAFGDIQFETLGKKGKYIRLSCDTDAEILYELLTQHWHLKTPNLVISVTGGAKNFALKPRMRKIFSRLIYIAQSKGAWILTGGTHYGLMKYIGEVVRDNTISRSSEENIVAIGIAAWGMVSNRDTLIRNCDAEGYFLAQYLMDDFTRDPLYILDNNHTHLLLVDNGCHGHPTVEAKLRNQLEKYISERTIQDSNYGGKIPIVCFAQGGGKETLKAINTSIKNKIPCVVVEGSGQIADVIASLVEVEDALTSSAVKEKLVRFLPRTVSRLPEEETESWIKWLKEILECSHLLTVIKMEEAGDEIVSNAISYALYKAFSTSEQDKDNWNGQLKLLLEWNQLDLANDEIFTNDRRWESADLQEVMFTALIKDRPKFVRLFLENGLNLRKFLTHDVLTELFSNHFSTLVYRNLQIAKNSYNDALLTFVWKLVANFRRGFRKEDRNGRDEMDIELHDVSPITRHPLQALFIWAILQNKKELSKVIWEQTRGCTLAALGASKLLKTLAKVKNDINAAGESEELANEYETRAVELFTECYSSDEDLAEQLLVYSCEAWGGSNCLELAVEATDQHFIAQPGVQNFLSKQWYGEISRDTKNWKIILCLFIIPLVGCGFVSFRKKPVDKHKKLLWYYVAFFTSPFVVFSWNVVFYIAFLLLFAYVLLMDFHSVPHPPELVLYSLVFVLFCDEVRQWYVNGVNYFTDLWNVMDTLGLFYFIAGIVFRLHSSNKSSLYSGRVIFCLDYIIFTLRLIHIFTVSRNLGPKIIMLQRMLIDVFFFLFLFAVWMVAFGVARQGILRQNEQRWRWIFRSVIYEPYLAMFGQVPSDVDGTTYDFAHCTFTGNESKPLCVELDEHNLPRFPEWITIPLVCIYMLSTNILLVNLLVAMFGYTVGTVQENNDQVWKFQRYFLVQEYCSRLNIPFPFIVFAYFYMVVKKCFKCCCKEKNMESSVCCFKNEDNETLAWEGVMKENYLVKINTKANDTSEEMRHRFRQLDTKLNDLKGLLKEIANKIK
The assay can be described thus: Test Example 2: enhancement degree of TRPM8 activity, intracellular calcium (Fura 2-AM) in TRPM8-expressing HEK293 cells. In kind it is cell-based. The note with it: test sample 0.5 mM, ratio to TRPM8 activity enhanced by agonist 1 mM menthol, FIG. 2. The protocol: A cDNA encoding human TRPM8 [a polynucleotide of position 41 to position 3355 of the nucleotide sequence shown in SEQ ID NO: 3 (GenBank Accession No.: NM_024080)] was inserted into a cloning site of a vector for mammalian cells [manufactured by Invitrogen under the trade name of pcDNA3.1(+)], to obtain a human TRPM8-expression vector. One microgram of the resulting human TRPM8-expression vector was mixed with 6 μL of a gene transfer reagent [manufactured by Invitrogen under the trade name of PLUS Reagent, Catalogue No.: 11514-015], to obtain a mixture III. […]
Thereafter, intensity of fluorescence E based on the Fura 2-AM introduced into the TRPM8-expressing cell and bound to a calcium ion in the cells at an excitation wavelength of 340 nm and intensity of fluorescence F based on the Fura 2-AM introduced into the TRAM8-expressing cell at an excitation wavelength of 380 nm were measured in the chamber.
Using the measured intensity of fluorescence E and F, Δfluorescence intensity ratiotest sample was calculated on the basis of the formula (V). In the formula (V), the intensity of fluorescence E was used as fluorescence intensity340 nm, and the intensity of fluorescence F was used as fluorescence intensity380 nm. […]

[1] abbreviates: test sample 1 mM in solvent A, FIG. 1.

Molecules are shown by their SMILES. Bounds are passed on as bounds.

T1 sequence (O75762 whole entry): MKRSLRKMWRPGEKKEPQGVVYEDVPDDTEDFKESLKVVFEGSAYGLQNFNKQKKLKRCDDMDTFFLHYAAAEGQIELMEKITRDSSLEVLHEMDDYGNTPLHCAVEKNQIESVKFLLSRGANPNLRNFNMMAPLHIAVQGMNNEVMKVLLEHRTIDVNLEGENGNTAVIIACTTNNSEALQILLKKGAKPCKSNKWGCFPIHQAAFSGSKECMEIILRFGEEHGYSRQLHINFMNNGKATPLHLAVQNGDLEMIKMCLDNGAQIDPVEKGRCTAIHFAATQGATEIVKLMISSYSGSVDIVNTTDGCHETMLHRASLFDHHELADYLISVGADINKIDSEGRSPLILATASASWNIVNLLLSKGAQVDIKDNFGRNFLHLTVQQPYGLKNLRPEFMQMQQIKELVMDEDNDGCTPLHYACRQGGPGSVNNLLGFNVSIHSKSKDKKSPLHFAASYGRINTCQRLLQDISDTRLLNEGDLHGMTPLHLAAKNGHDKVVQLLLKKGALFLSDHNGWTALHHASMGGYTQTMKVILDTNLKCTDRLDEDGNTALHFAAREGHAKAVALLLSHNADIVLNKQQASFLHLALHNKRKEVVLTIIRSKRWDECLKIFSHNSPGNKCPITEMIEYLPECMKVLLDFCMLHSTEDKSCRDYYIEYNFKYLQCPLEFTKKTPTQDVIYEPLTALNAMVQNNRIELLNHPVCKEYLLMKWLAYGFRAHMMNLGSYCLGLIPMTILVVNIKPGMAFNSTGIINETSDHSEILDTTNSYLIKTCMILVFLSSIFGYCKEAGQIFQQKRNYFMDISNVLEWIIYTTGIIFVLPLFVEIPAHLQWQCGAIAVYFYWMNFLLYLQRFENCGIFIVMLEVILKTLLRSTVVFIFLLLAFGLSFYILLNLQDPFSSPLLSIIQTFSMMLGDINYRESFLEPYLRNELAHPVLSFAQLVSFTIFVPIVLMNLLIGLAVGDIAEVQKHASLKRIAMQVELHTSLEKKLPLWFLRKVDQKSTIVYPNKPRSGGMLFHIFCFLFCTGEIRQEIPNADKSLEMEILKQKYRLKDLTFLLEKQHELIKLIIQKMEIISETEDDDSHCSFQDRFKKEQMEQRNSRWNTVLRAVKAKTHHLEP

Turning to `CC12CCC(CC1)C(C)(C)O2` [Reference Example 2, 1,8-cineole], the TRPA1 activity-inhibition ratio result at human TRPA1 (setting [1]) is on record as “about 71%”. On to `OCC(O)CO` [Comparative Example 1, Glycerol], for which the TRPA1 activity-inhibition ratio on human TRPA1 (test sample 5 mM glycerol in solvent A, FIG. 1 lane 4) was ≤ 0%. For the molecule `CC1(C)C2CCC1(C)C(OCCO)C2` (stereo not drawn) [Example 1, 2-isobornyloxyethanol], at human TRPM8, the “Enhancement degree of TRPM8 activity” value was “about 0.69”. Further, the TRPA1 activity-inhibition ratio entry at human TRPA1 (setting [1]) is reported as “about 99%”. Consider `CC1(C)C2CCC1(C)C(O)C2` (stereo not drawn) [Reference Example 1, Borneol], for which, at human TRPM8, the “Enhancement degree of TRPM8 activity” value was “about 0.35”. The TRPA1 activity-inhibition ratio entry at human TRPA1 (setting [1]) is reported as “about 96%”.
